Assay results as given in patent publication US20070197629A1, “Indole derivative and application thereof” (priority 2004, published 2007).
Where two headings read alike, the source gives them in different places.

Columns and labels:
osteoclasts [1] = assay: Assay of influences on osteoclasts: tartaric acid-resistant acid phosphatase (TRAP) activity in cultured goldfish scales; assay type: cell-based; conditions: for TRAP activity, amount of paranitrophenol produced: scales cultured at 15° C. for 6 hours, control 3.43 ± 0.04
Description: In accordance with the method described in N. Suzuki and A. Hattori, J. Pineal Res., 33, 253-258, 2002, influences of an indole derivative on bone cells were inspected.
A female goldfish (body weight: about 30 g) was put under anesthesia with MS222 (ethyl 3-aminobenzoate, methane sulfonic acid salt) (Aldrich), and a desired number of scales were peeled off. The scales were washed twice in Eagle's minimum essential medium (ICN Biomedicals Inc.) comprising 1% antibiotics (a mixture of penicillin and streptomycin). Medium of the same type was introduced into each well of a 24-well plate in amounts of 1 ml, several scales were introduced to each well (8 scales in general), and 10^−4, 10^−6, and 10^−8 M indole derivatives were applied to separate wells. Subsequently, the scales were cultured at 15° C. for 6 hours. Also, a group to which no indole derivative had been added was prepared (a control group), and influences thereof on osteoclasts and osteoblasts were compared. Two control groups, i.e., a group for inspecting osteoclasts and a group for inspecting osteoblasts, were provided. Specifically, a total of 8 wells were provided for the control and 10^−4, 10^−6, and 10^−8 M indole derivatives (2 wells for each thereof). Accordingly, 3 types of indole derivatives can be inspected with the use of a 24-well plate.
After the culture, medium was removed, 0.05 M cacodylate buffer (pH 7.4) containing 10% formalin was added, and the scales were immobilized. The scales were stored in 0.05 M cacodylate buffer at 4° C. until the measurement of enzyme activity was initiated.
2-Bromomelatonin (a compound represented by formula (I) wherein X represents a bromine atom; R^1 represents a hydrogen atom; R^2 represents methyl; R^3, R^5 and R^6 each represent a hydrogen atom; and R^4 represents methyl), which was subjected to the test, was a known compound, and it was synthesized by the method described in M. Somei, Y. Fukui, M. Hasegawa, N. Oshikiri, and T. Hayashi, Heterocycles, 53, 1725-1736, 2000. • (1) Assay of Influences Imposed on Osteoclasts, i.e., Assay of Tartaric Acid-Resistant Acid Phosphatase (TRAP) Activity
The immobilized scales were removed from the plate, and the weights thereof were measured. Thereafter, the scales were introduced into a 96-well microplate, 200 μl of 100 mM acetate buffer containing 20 mM tartaric acid and 10 mM paranitrophenol phosphate (substrate) was introduced to each well, reaction was allowed to proceed at 25° C. for 1 hour, and an aqueous solution of 2N sodium hydroxide (50 μl) was then added in order to terminate the reaction. The solution after the reaction (150 μl) was transferred to the other microplate, and the amount of paranitrophenol (pNP) generated by TRAP was measured using a spectrophotometer (405 nm). The osteoclast activity was indicated in terms of the amount of paranitrophenol phosphate decomposed and that of pNP produced within 1 hour per mg of the scales.

osteoblasts [2] = assay: Assay of influences on osteoblasts: alkaline phosphatase (ALP) activity in cultured goldfish scales; assay type: cell-based; conditions: for ALP activity, amount of paranitrophenol produced: scales cultured at 15° C. for 6 hours, control 6.00-6.17 (per table)
Description: In accordance with the method described in N. Suzuki and A. Hattori, J. Pineal Res., 33, 253-258, 2002, influences of an indole derivative on bone cells were inspected. A female goldfish (body weight: about 30 g) was put under anesthesia with MS222 (ethyl 3-aminobenzoate, methane sulfonic acid salt) (Aldrich), and a desired number of scales were peeled off. The scales were washed twice in Eagle's minimum essential medium (ICN Biomedicals Inc.) comprising 1% antibiotics (a mixture of penicillin and streptomycin). Medium of the same type was introduced into each well of a 24-well plate in amounts of 1 ml, several scales were introduced to each well (8 scales in general), and 10^−4, 10^−6, and 10^−8 M indole derivatives were applied to separate wells. Subsequently, the scales were cultured at 15° C. for 6 hours. Also, a group to which no indole derivative had been added was prepared (a control group), and influences thereof on osteoclasts and osteoblasts were compared. Two control groups, i.e., a group for inspecting osteoclasts and a group for inspecting osteoblasts, were provided. Specifically, a total of 8 wells were provided for the control and 10^−4, 10^−6, and 10^−8 M indole derivatives (2 wells for each thereof). Accordingly, 3 types of indole derivatives can be inspected with the use of a 24-well plate. After the culture, medium was removed, 0.05 M cacodylate buffer (pH 7.4) containing 10% formalin was added, and the scales were immobilized. The scales were stored in 0.05 M cacodylate buffer at 4° C. until the measurement of enzyme activity was initiated. • (2) Assay of Influences Imposed on Osteoblasts, i.e., Assay of Alkaline Phosphatase (ALP) Activity The immobilized scales were removed from the plate, and the weights thereof were measured. Thereafter, the scales were introduced into a 96-well microplate, 200 μl of 100 mM tris-HCl buffer (pH 9.5) comprising 10 mM paranitrophenol phosphate (substrate), 1 mM magnesium chloride, and 0.1 mM zinc chloride was introduced into each well, the reaction was allowed to proceed at 25° C. for 1 hour, and an aqueous solution of 2N sodium hydroxide (50 μl) was added thereto in order to terminate the reaction. Thereafter, 150 μl of the solution after the reaction was transferred to the other microplate, and the amount of pNP generated by ALP was measured using a spectrophotometer (405 nm) to determine the activity.

osteoclasts [3] = conditions: reported in N. Suzuki and A. Hattori, J. Pineal Res., 33, 253-258, 2002; cited from earlier work
osteoblasts [4] = conditions: reported in N. Suzuki and A. Hattori, J. Pineal Res., 33, 253-258, 2002; cited from earlier work

| SMILES | TRAP activity, amount of paranitrophenol produced (osteoclasts [1]; indole derivative 10^−4 M) | TRAP activity, amount of paranitrophenol produced (osteoclasts [1]; indole derivative 10^−6 M) | TRAP activity, amount of paranitrophenol produced (osteoclasts [1]; indole derivative 10^−8 M) | ALP activity, amount of paranitrophenol produced (osteoblasts [2]; indole derivative 10^−4 M) | ALP activity, amount of paranitrophenol produced (osteoblasts [2]; indole derivative 10^−6 M) | ALP activity, amount of paranitrophenol produced (osteoblasts [2]; indole derivative 10^−8 M) | Influence on osteoclasts (in words) (osteoclasts [1]; summary of FIG. 1A, 1B, Table 1) | Influence on osteoblasts (in words) (osteoblasts [2]; summary of FIG. 2A, 2B, Tables 2A to 2G) | Influence on osteoclasts (in words) (osteoclasts [3]) | Influence on osteoblasts (in words) (osteoblasts [4]) | melting point |
| --- | --- | --- | --- | --- | --- | --- | --- | --- | --- | --- | --- |
| COc1ccc2[nH]c(Br)c(CCNC(C)=O)c2c1 [2-Bromomelatonin] | 2.83 ± 0.23 nmol/mg of scales/hr | 2.62 ± 0.17 nmol/mg of scales/hr | 3.02 ± 0.23 nmol/mg of scales/hr | 5.72 ± 0.47 nmol/mg of scales/hr | 6.03 ± 0.66 nmol/mg of scales/hr | 7.41 ± 0.35 nmol/mg of scales/hr | – | – | – | – | – |
| COc1ccc2[nH]cc(CCNC(C)=O)c2c1 [Melatonin, N-acetyl-5-methoxytryptamine, reference compound] | 2.67 ± 0.11 nmol/mg of scales/hr | 2.69 ± 0.15 nmol/mg of scales/hr | 2.91 ± 0.13 nmol/mg of scales/hr | 5.19 ± 0.36 nmol/mg of scales/hr | 5.42 ± 0.25 nmol/mg of scales/hr | 5.45 ± 0.27 nmol/mg of scales/hr | suppressively acts | suppressively acts | act suppressively | act suppressively | – |
| COc1c(Br)cc2c(c1Br)c(CCNC(C)=O)c(Br)n2Cc1ccccc1 [1-Benzyl-2,4,6-tribromomelatonin, N-acetyl-1-benzyl-2,4,6-tribromo-5-methoxyindole-3-ethanamine] | 2.59 ± 0.24 nmol/mg of scales/hr | 2.83 ± 0.20 nmol/mg of scales/hr | 2.85 ± 0.20 nmol/mg of scales/hr | 7.77 ± 0.37 nmol/mg of scales/hr | 7.92 ± 0.55 nmol/mg of scales/hr | 8.44 ± 1.00 nmol/mg of scales/hr | – | – | – | – | 218 to 219 °C |
| COc1c(Br)cc2c(c1Br)c(CCNC(C)=O)c(Br)n2S(=O)(=O)c1ccc(C)cc1 [2,4,6-tribromo-1-tosyl-melatonin, N-acetyl-2,4,6-tribromo-5-methoxy 1-tosylindole-3-ethanamine] | – | – | – | – | – | – | – | – | – | – | 215 to 216 °C |
| C#CCn1c(Br)c(CCNC(C)=O)c2c(Br)c(OC)c(Br)cc21 [2,4,6-Tribromo-1-propargylmelatonin, N-acetyl-2,4,6-tribromo-5-methoxy-1-propargylindole-3-ethanamine] | 2.78 ± 0.13 nmol/mg of scales/hr | 2.82 ± 0.15 nmol/mg of scales/hr | 2.78 ± 0.15 nmol/mg of scales/hr | 7.55 ± 0.76 nmol/mg of scales/hr | 8.66 ± 0.47 nmol/mg of scales/hr | 7.07 ± 0.75 nmol/mg of scales/hr | – | – | – | – | – |
| COc1c(Br)c(Br)c2[nH]c(Br)c(CCNC(C)=O)c2c1Br [2,4,6,7-Tetrabromomelatonin, 2,4,6,7-tetrabromomelatonin] | 2.71 ± 0.17 nmol/mg of scales/hr | 2.83 ± 0.16 nmol/mg of scales/hr | 3.19 ± 0.14 nmol/mg of scales/hr | 6.12 ± 0.41 nmol/mg of scales/hr | 6.12 ± 0.50 nmol/mg of scales/hr | 7.90 ± 0.73 nmol/mg of scales/hr | – | – | – | – | – |
| COc1c(Br)cc2[nH]c(Br)c(CCNC(C)=O)c2c1Br [2,4,6-Tribromomelatonin, N-acetyl-2,4,6-tribromo-5-methoxyindole-3-ethanamine] | 2.93 ± 0.18 nmol/mg of scales/hr | 2.87 ± 0.13 nmol/mg of scales/hr | 2.88 ± 0.08 nmol/mg of scales/hr | 6.00 ± 0.38 nmol/mg of scales/hr | 6.61 ± 0.38 nmol/mg of scales/hr | 7.58 ± 0.70 nmol/mg of scales/hr | – | – | – | – | – |
| C=CCn1c(Br)c(CCNC(C)=O)c2c(Br)c(OC)c(Br)cc21 [1-Allyl-2,4,6-tribromomelatonin, N-acetyl-1-allyl-2,4,6-tribromo-5-methoxyindole-3-ethanamine] | 2.87 ± 0.10 nmol/mg of scales/hr | 2.89 ± 0.12 nmol/mg of scales/hr | 2.99 ± 0.13 nmol/mg of scales/hr | 6.44 ± 0.44 nmol/mg of scales/hr | 6.79 ± 0.63 nmol/mg of scales/hr | 8.30 ± 0.68 nmol/mg of scales/hr | – | – | – | – | 142 to 143 °C |
